Measured values taken from patent US6657105B2 (Riken, priority 2000, dated 2003).

Tested on: Or-Prnp transgenic mice
Conditions: mouse, in vivo, 4 mg/kg

For `CN1[C@@H]2CC[C@H]1C[C@@H](OC(=O)C(CO)c1ccccc1)C2` (stereo partly shown) [atropine], the “abnormal waves in electrocardiogram after administration of heart stimulant” value was “only Or-Prnp transgenic mice showed the abnormal waves in electrocardiogram”.
